According to patent US6599938B1, “Compounds having MIF antagonist activity” (The Picower Institute of Medical Research, priority 1999, dated 2003):
“And” between values parts separate entries of the source, which are not always exact repeats. Identical values can stand only once. “Also recorded” adds a separate entry of the source. Like-named read-outs stand apart in the source and are kept apart here.

What was measured:
MIF = target: T1, MIF (Homo sapiens, UniProt P14174); test: MIF dopachrome tautomerase assay; format: biochemical; conditions: for MIF antagonist activity: D amino acid compounds compared with compounds 8-10; for IC50: MIF tautomerase activity, L-dopachrome methyl ester substrate
T1 sequence (P14174 2-115 limits assumed): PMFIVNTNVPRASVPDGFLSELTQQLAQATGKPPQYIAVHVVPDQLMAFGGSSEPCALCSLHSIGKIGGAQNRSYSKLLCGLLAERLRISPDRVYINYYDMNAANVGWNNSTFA

[1] = test system: primary murine embryonic fibroblasts; test: Neutralization of rMIF rescue from serum-withdrawal apoptosis; format: cell-based; conditions: serum-free + rMIF 50 ng/ml; for neutralizing MIF-mediated protection from apoptosis (persistence of apoptosis despite rMIF): FIG. 2, test compound 1 or 10 μM, compared with anti-MIF mAb
Source text: FIG. 2 compares the activity of MIF antagonist agents of the present invention (and more particularly compounds according to Formula I) to neutralize the MIF-mediated protection from apoptosis induced in cultured murine embryonic fibroblasts, which apoptotic response (cell death) is initiated by withdrawal of serum. In this assay, withdrawal of serum initiates an apoptotic response, but the cells can be rescued by addition of recombinant MIF (rMIF) to the culture medium. […] This antagonistic effect on MIF bioactivity in vitro is predictive of clinical utility of the active MIF antagonist agent.
In the illustrative experiments, cultured embryonic fibroblasts are induced to enter apoptosis (cell death) as a result of serum withdrawal. These cultures can be “rescued” by treatment with MIF. Thus, test compounds are conveniently assayed for MIF antagonist activity by reference to the activity of the compounds to neutralize the effect of added MIF in the apoptosis assay; that is, by the persistence of apoptosis (cell death) in serum-free culture conditions despite the addition of MIF. In this regard, anti-MIF antibodies are known to antagonize MIF and serve as a convenient positive control.
Briefly, primary murine embryonic fibroblasts are distributed into 6-well cell culture plates at 2×10^5 cells/well. Cells are subsequently cultured overnight under standard conditions in 10% serum-containing medium (+serum) or in serum-free medium (+serum-free) in the absence or presence of recombinant human MIF (rMIF) at 50 ng/ml. […] Cell lysates are analyzed for apoptosis by any of a variety of convenient methods, such as ELISA for fragmented DNA. Results shown are the mean+/−SD of duplicate samples and are representative of replicated experiments.

[2] = test system: quiescent NIH/3T3 fibroblasts; test: Inhibition of MIF-dependent serum-induced proliferation of quiescent NIH/3T3 fibroblasts; format: cell-based; conditions: for MIF inhibitory activity (inhibition of MIF induced proliferation in quiescent NIH/3T3 cell cultures): NIH/3T3 cell proliferation assay

COC(=O)[C@@H](Cc1ccccc1)N=Cc1ccc(O)cc1 [compound 8b]
MIF antagonist activity (MIF): significantly less MIF antagonist activity

COC(=O)[C@@H](Cc1c[nH]c2ccccc12)N=Cc1ccc(O)cc1 [compound 10b, D-tryptophan/para-hydroxybenzaldehyde Schiff base]
MIF antagonist activity (MIF): significantly less MIF antagonist activity | neutralizing MIF-mediated protection from apoptosis (persistence of apoptosis despite rMIF) [1]: but not compound 10b (D-tryptophan/para-hydroxybenzaldehyde Schiff base), was as effective as a monoclonal anit-MIF antibody treatment at neutralizing rMIF

COC(=O)CN=Cc1ccc(O)cc1 [compound 1]
IC50 (MIF; read-out: Inhibition (IC50)): > 100 µM

COC(=O)C(Cc1ccc(O)cc1)N=Cc1ccc(O)c(O)c1 (centres unmarked) [compound 21]
IC50 (MIF; read-out: Inhibition IC50): > 100 µM

COC(=O)[C@H](Cc1c[nH]c2ccccc12)N=Cc1ccc(F)cc1 [compound 29]
IC50 (MIF; read-out: Inhibition IC50): > 100 µM

COC(=O)[C@H](Cc1ccc(O)cc1)N=Cc1ccc(O)cc1 [compound 9, L-TyrME/parahydroxybenzaldehyde Schiff base]
IC50 (MIF; read-out: Inhibition (IC50)): ~10 µM and 10 µM | MIF inhibitory activity (inhibition of MIF induced proliferation in quiescent NIH/3T3 cell cultures) [2]: exhibited MIF inhibitory activity

COC(=O)[C@H](Cc1c[nH]c2ccccc12)N=Cc1ccc(O)cc1 [compound 10]
suppression of serum-induced cell proliferation ([2]; FIG. 1, 10 μM, 10% serum, [3H]-thymidine incorporation, compared with anti-MIF mAb 100 μg/ml): as effective an MIF antagonist as a neutralizing anti-MIF monoclonal antibody | MIF inhibitory activity (inhibition of MIF induced proliferation in quiescent NIH/3T3 cell cultures) [2]: exhibited MIF inhibitory activity | antagonism of the bioactivity of MIF in apoptosis assay ([1]; 10 μM): significantly antagonizes the bioactivity of MIF | neutralizing MIF-mediated protection from apoptosis (persistence of apoptosis despite rMIF) [1]: as effective an MIF antagonist agent as is a neutralizing anti-MIF monoclonal antibody; also recorded: as effective as a monoclonal anit-MIF antibody treatment at neutralizing rMIF; also recorded: dose-related effect

COC(=O)C(Cc1ccc(O)cc1)N=Cc1cccc(O)c1O (centres unmarked) [compound 20]
IC50 (MIF; read-out: Inhibition IC50): > 100 µM

COC(=O)C(Cc1ccc(O)cc1)N=Cc1ccccc1O (centres unmarked) [compound 18]
IC50 (MIF; read-out: Inhibition IC50): > 100 µM

COC(=O)[C@H](Cc1ccc(O)cc1)N=Cc1ccc(F)cc1 [compound 24]
IC50 (MIF; read-out: Inhibition IC50): > 100 µM

COC(=O)[C@H](Cc1ccccc1)N=Cc1ccc(O)cc1 [compound 8, L-PheME/parahydroxybenzaldehyde Schiff base]
IC50 (MIF; read-out: Inhibition (IC50)): ~50 µM and 50 µM | MIF inhibitory activity (inhibition of MIF induced proliferation in quiescent NIH/3T3 cell cultures) [2]: Neither compound 8 (corresponding to L-PheME/parahydroxybenzaldehyde Schiff base) nor compound 10b (corresponding to D-TrpME/parahydroxybenzaldehyde Schiff base) exhibited anti-MIF biological activity
